According to patent US11932658B2 (BRISTOL-MYERS SQUIBB COMPANY, priority 2016, dated 2024):
Read-outs that look alike come from different tables or passages of the source.

Molecular target: T1, PAR4 (Homo sapiens, UniProt Q96RI0)
T1 construct: expressed in transfected cells; host or cells: HEK293 PAR4 Clone 1.2A (BMS Arctic ID 383940)
T1 sequence (Q96RI0 18-385): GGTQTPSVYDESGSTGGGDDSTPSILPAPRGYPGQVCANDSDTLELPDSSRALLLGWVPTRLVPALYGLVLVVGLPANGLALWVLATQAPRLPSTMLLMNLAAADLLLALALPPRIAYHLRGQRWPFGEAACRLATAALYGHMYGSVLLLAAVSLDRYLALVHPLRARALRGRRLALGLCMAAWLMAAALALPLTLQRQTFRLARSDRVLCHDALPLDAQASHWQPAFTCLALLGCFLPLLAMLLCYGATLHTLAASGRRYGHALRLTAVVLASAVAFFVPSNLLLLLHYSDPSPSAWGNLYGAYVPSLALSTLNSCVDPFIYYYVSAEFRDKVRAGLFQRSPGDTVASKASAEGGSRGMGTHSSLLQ
Assay: PAR4 FLIPR assay (antagonism of agonist peptide-induced calcium mobilization)
Type: cell-based
Outline: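 Antagonism was taken as block of calcium mobilization evoked by the agonist peptide H-Ala-Phe(4-F)-Pro-Gly-Trp-Leu-Val-Lys-Asn-[…]-NH2, added after 30 min room-temperature compound preincubation in dye-loaded PAR4-transfected HEK293 cells (endogenous PAR1). Fluorescence was read on FDSS, with compound addition alone used as the agonist counter-screen; values come from 11-point concentration-response curves.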

Row | Molecule | IC50 | IC50 (PAR4-expressing HEK293 cells, calcium mobilization induced by H-Ala-Phe(4-F)-Pro-Gly-Trp-Leu-Val-Lys-Asn-Gly-NH2, 11-point concentration-response curves)
1 | Cc1cc(-c2nc3c(F)cc4c(c3s2)OC(CNC(=O)OC(C)(C)C)CO4)c2ncc(OC(F)F)nc2c1 (stereo not drawn) [Example 23, tert-butyl ((2-(2-(difluoromethoxy)-7-methylquinoxalin-5-yl)-4-fluoro-7,8-dihydro-[1,4]dioxino[2′,3′:3,4]benzo[1,2-d]thiazol-8-yl)methyl)carbamate] | 9.4 nM | 
2 | CCOc1cnc2c(-c3nc4cc(F)c5c(c4s3)C[C@H](COC(=O)Nc3cnc(C)nc3)O5)cc(C)cc2n1 [Example 153, (R)-(2-(2-ethoxy-7-methylquinoxalin-5-yl)-5-fluoro-7,8-dihydrobenzofuro[5,4-d]thiazol-7-yl)methyl (2-methylpyrimidin-5-yl)carbamate] | 2.4 nM | 
3 | COc1cnc2c(-c3nc4cc(F)c5c(c4s3)C[C@H](CNC(=O)OCc3ccccc3)O5)cc(C)cc2n1 [Example 221, (R)-benzyl ((5-fluoro-2-(2-methoxy-7-methylquinoxalin-5-yl)-7,8-dihydrobenzofuro[5,4-d]thiazol-7-yl)methyl)carbamate] | 5.9 nM | 
4 | COc1ccc(NC(=O)OC[C@H]2COc3c(cc(Cl)c4oc(-c5cc(C)cc6nc(OC)cnc56)cc34)O2)cn1 [Example 9, (R)-(6-chloro-8-(2-methoxy-7-methylquinoxalin-5-yl)-2,3-dihydro-[1,4]dioxino[2,3-e]benzofuran-3-yl)methyl (6-methoxypyridin-3-yl)carbamate] | 1.8 nM | 
5 | COc1cnc2c(-c3nc4ccc5c(c4s3)C[C@@H](CNC(=O)O[C@@H]3CCOC3)O5)cc(C)cc2n1 [Example 230, (R)-tetrahydrofuran-3-yl (((S)-2-(2-methoxy-7-methylquinoxalin-5-yl)-7,8-dihydrobenzofuro[5,4-d]thiazol-7-yl)methyl)carbamate] | 6.4 nM | 
6 | COc1cnc2c(-c3nc4ccc5c(c4s3)C[C@H](COC(=O)Nc3cnc(C)nc3)O5)cc(C)cc2n1 [Example 144, (R)-(2-(2-methoxy-7-methylquinoxalin-5-yl)-7,8-dihydrobenzofuro[5,4-d]thiazol-7-yl)me thyl (2-methylpyrimidin-5-yl)carbamate] | 1.2 nM | 
7 | COc1cnc2c(-c3cc4c5c(cc(Cl)c4o3)O[C@@H](COC(=O)Nc3ccnc(C)c3)CO5)cc(C)cc2n1 [Example 8, (R)-(6-chloro-8-(2-methoxy-7-methylquinoxalin-5-yl)-2,3-dihydro-[1,4]dioxino[2,3-e]benzofuran-3-yl)methyl (2-methylpyridin-4-yl)carbamate] | 1.4 nM | 
8 | COc1cnc2c(-c3nc4c(Cl)cc5c(c4s3)OC[C@H](COC(=O)Nc3cccnc3)O5)cc(C)cc2n1 [Example 31, (R)-(4-chloro-2-(2-methoxy-7-methylquinoxalin-5-yl)-7,8-dihydro-[1,4]dioxino[2′,3′:3,4]benzo[1,2-d]thiazol-7-yl)methyl pyridin-3-ylcarbamate] | 0.9 nM | 
9 | COc1cnc2c(-c3nc4c(Cl)cc5c(c4s3)OC[C@H](COC(=O)Nc3ccc4ncsc4c3)O5)cc(C)cc2n1 [Example 40, (R)-(4-chloro-2-(2-methoxy-7-methylquinoxalin-5-yl)-7,8-dihydro-[1,4]dioxino[2′,3′:3,4]benzo[1,2-d]thiazol-7-yl)methyl benzo[d]thiazol-6-ylcarbamate] | 97 nM | 
10 | COc1cnc2c(-c3nc4ccc5c(c4s3)C[C@@H](CNC(=O)OC3CCOCC3)O5)cc(C)cc2n1 [Example 227, (S)-tetrahydro-2H-pyran-4-yl ((2-(2-methoxy-7-methylquinoxalin-5-yl)-7,8-dihydrobenzofuro[5,4-d]thiazol-7-yl)methy 1)carbamate] | 1.3 nM | 
11 | COc1cnc2c(-c3nc4c(C(O)C5(C(F)(F)F)CCC5)cc5c(c4s3)OCCO5)cc(C)cc2n1 (single isomer, unassigned) [Example 265, (2-(2-methoxy-7-methylquinoxalin-5-yl)-7,8-dihydro-[1,4]dioxino[2′,3′:3,4]benzo[1,2-d]thiazol-4-yl)(1-(trifluoromethyl)cyclobutyl)methanol] | 1.9 nM | 
12 | COc1cnc2c(-c3nc4c(C)cc5c(c4s3)OC[C@H](COC(=O)Nc3ccc(F)nc3)O5)cc(C)cc2n1 [Example 41, (R)-(2-(2-methoxy-7-methylquinoxalin-5-yl)-4-methyl-7,8-dihydro-[1,4]dioxino[2′,3′:3,4]benzo[1,2-d]thiazol-7-yl)methyl (6-fluoropyridin-3-yl)carbamate] | 1.6 nM | 
13 | COc1cnc2c(-c3nc4c(C(O)C(C)(C)C)cc5c(c4s3)OCCO5)cc(Cl)cc2c1 (single isomer, unassigned) [Example 274, 1-(2-(6-chloro-3-methoxyquinolin-8-yl)-7,8-dihydro-[1,4]dioxino[2′,3′:3,4]benzo[1,2-d]thiazol-4-yl)-2,2-dimethylpropan-1-ol] | 5 nM | 
14 | COc1cnc2c(-c3nc4ccc5c(c4s3)C[C@@H](COC(=O)Nc3cnc(C)nc3)O5)cc(C)cc2n1 [Example 150, (S)-(2-(2-methoxy-7-methylquinoxalin-5-yl)-7,8-dihydrobenzofuro[5,4-d]thiazol-7-yl)me thyl (2-methylpyrimidin-5-yl)carbamate] | 5.4 nM | 
15 | COc1cnc2c(-c3nc4cc(F)c5c(c4s3)OC[C@H](CO)O5)cc(C)cc2n1 [Example 291, (S)-(5-fluoro-2-(2-methoxy-7-methylquinoxalin-5-yl)-7,8-dihydro-[1,4]dioxino[2′,3′:3,4]benzo[1,2-d]thiazol-7-yl)methanol] | 59 nM | 
16 | COc1cnc2c(-c3nc4c(C)cc5c(c4s3)OC[C@H](COC(=O)Nc3ccc(-c4cccs4)nc3)O5)cc(C)cc2n1 [Example 53, (R)-(2-(2-methoxy-7-methylquinoxalin-5-yl)-4-methyl-7,8-dihydro-[1,4]dioxino [2′,3′:3,4]benzo[1,2-d]thiazol-7-yl)methyl (6-(thiophen-2-yl)pyridin-3-yl)carbamate] | 54 nM | 
17 | COc1cnc2c(-c3nc4cc(F)c5c(c4s3)C[C@@H](CO)O5)cc(C)cc2n1 [Example 146, (S)-(5-fluoro-2-(2-methoxy-7-methylquinoxalin-5-yl)-7,8-dihydrobenzofuro[5,4-d]thiazol-7-yl)methanol] | 1.1 nM | 
18 | COc1cnc2c(-c3nc4c(C)cc5c(c4s3)OCC(COC(=O)Nc3cncc(C(N)=O)c3)O5)cc(C)cc2n1 (stereo not drawn) [Example 77, (2-(2-methoxy-7-methylquinoxalin-5-yl)-4-methyl-7,8-dihydro-[1,4]dioxino [2′,3′:3,4]benzo[1,2-d]thiazol-7-yl)methyl (5-carbamoylpyridin-3-yl)carbamate] | 15 nM | 
19 | COc1cnc2c(-c3nc4ccc5c(c4s3)C[C@@H](CNC(=O)OCc3ccncc3)O5)cc(C)cc2n1 [Example 233, (S)-pyridin-4-ylmethyl ((2-(2-methoxy-7-methylquinoxalin-5-yl)-7,8-dihydrobenzofuro[5,4-d]thiazol-7-yl)methy 1)carbamate] | 6.6 nM | 
20 | COc1cnc2c(-c3nc4ccc5c(c4s3)C[C@@H](CNS(C)(=O)=O)O5)cc(C)cc2n1 [Example 228, (S)-N-((2-(2-methoxy-7-methylquinoxalin-5-yl)-7,8-dihydrobenzofuro[5,4-d]thiazol-7-yl)methyl)methanesulfonamide] | 190 nM | 
21 | COc1cnc2c(-c3nc4ccc5c(c4s3)CC(CNC(=O)Oc3ccccc3)O5)cc(C)cc2n1 (stereo not drawn) [Example 192, Phenyl ((2-(2-methoxy-7-methylquinoxalin-5-yl)-7,8-dihydrobenzofuro[5,4-d]thiazol-7-yl)methy 1)carbamate] | 8.3 nM | 
22 | (S)-5-fluoro-2-(2-methoxy-7-methylquinoxalin-5-yl)-7-(((2-methylpyrimidin-5-yl)oxy)m ethyl)-7,8-dihydro-[1,4]dioxino[2′,3′:3,4]benzo[1,2-d]thiazole [Example 292] |  | 1.1 nM
23 | COc1cnc2c(-c3nc4cc(F)c5c(c4s3)C[C@@](C)(COC(=O)Nc3cnc(C)nc3)O5)cc(C)cc2n1 [Example 174, (S)-(5-fluoro-2-(2-methoxy-7-methylquinoxalin-5-yl)-7-methyl-7,8-dihydrobenzofuro[5,4-d]thiazol-7-yl)methyl (2-methylpyrimidin-5-yl)carbamate] | 30 nM | 
24 | COc1cnc2c(-c3nc4cc(F)c5c(c4s3)C[C@H](COC(=O)Nc3cnc(C)nc3)O5)cc(Cl)cc2c1 [Example 267, (R)-(2-(6-chloro-3-methoxyquinolin-8-yl)-5-fluoro-7,8-dihydrobenzofuro[5,4-d]thiazol-7-yl)methyl (2-methylpyrimidin-5-yl)carbamate] | 1.8 nM | 
25 | CCOc1cnc2c(-c3nc4ccc5c(c4s3)OC[C@H](COC(=O)Nc3cnc(C)nc3)O5)cc(Cl)cc2c1 [Example 271, (R)-(2-(6-chloro-3-ethoxyquinolin-8-yl)-7,8-dihydro-[1,4]dioxino[2′,3′:3,4]benzo[1,2-d]thiazol-7-yl)methyl (2-methylpyrimidin-5-yl)carbamate] | 4.9 nM | 
26 | COc1cnc2c(-c3nc4c(C)cc5c(c4s3)OCC(COC(=O)Nc3cccnc3)O5)cc(Cl)cc2n1 (stereo not drawn) [Example 95, (2-(7-chloro-2-methoxyquinoxalin-5-yl)-4-methyl-7,8-dihydro-[1,4]dioxino[2′,3′:3,4]benzo[1,2-d]thiazol-7-yl)methyl pyridin-3-ylcarbamate] | 140 nM | 
27 | COc1cnc2c(-c3nc4ccc5c(c4s3)C[C@@H](CO)O5)cc(C)cc2n1 [Example 149, (S)-(2-(2-methoxy-7-methylquinoxalin-5-yl)-7,8-dihydrobenzofuro[5,4-d]thiazol-7-yl)me thanol] | 1.5 nM | 
